Results published in patent publication EP0372582A2, “6-Aminoalkyl carbapenems” (Bristol-Myers Squibb Company, priority 1988, dated 1990).
Like-named read-outs stand apart in the source and are kept apart here.

Experiments:
[1] = Chemical stability in aqueous solution (half-life); format: physicochemical
Procedure: Chemical stability in aqueous solution at pH 7.4 and pH 2.0 is reported as half-life (t1/2). These values are determined by interpolation from a graph of concentration of test substance remaining in solution after storage under selected conditions for various periods of time.

[2] = Blood concentration parameters after administration to mice; format: in vivo; details: for AUC / Cmax / half-life: mouse, mice; for half-life: blood half-life; for U.R.: listed after the PO/50 lines, abbreviation not defined
Excerpt: […] "Cmax" is the maximum concentration achieved, "t1/2" is the half-life or time for half of the absorbed material to disappear from the blood stream.

E. coli = assay: Protective dose (PD50) in infected animals; format: in vivo, mice; parameters: unit not given here
Excerpt: (§1) The PD₅₀ values are protective doses, or the dose of test compound which secures survival of 50% of the animals of a test group, usually mice, during a designated period of time after being infected with an inoculum of infectious organism which will result in death of all inoculated untreated animals during that test period.

E. coli A15119 = assay: M.I.C., tube dilution method in Nutrient Broth; format: cell-based; details: unit assumed
Procedure: (§2) The following procedures illustrate the application of the process of this invention to the preparation of a variety of compounds of Formula V. In many instances, data illustrating the biological activity of the substances as antibiotics are presented. […] It is determined by interpolation from a graph of concentration versus number of cells following exposure of the organism to the test compound under growth conditions. Another parameter such as optical density which is proportional to the cell count may be used. In some instances MIC₉₀ values are also given. The latter refers to 90% growth inhibition.

E. coli A20341 = assay: M.I.C., tube dilution method in Nutrient Broth; format: cell-based; details: unit assumed
Procedure: as §2

Ent. clo. A9656 = assay: M.I.C., tube dilution method in Nutrient Broth; format: cell-based; details: unit assumed
Procedure: as §2

Ent. clo. A9659 = assay: M.I.C., tube dilution method in Nutrient Broth; format: cell-based; details: unit assumed
Procedure: as §2

K. pneu. A20468 = assay: M.I.C., tube dilution method in Nutrient Broth; format: cell-based; details: unit assumed
Procedure: as §2

K. pneu. A9664 = assay: M.I.C., tube dilution method in Nutrient Broth; format: cell-based; details: unit assumed
Procedure: as §2

P. mir. A9900 = assay: M.I.C., tube dilution method in Nutrient Broth; format: cell-based; details: unit assumed
Procedure: as §2

P. morg. A15153 = assay: M.I.C., tube dilution method in Nutrient Broth; format: cell-based; details: unit assumed
Procedure: as §2

P. rett. A22424 = assay: M.I.C., tube dilution method in Nutrient Broth; format: cell-based; details: unit assumed
Procedure: as §2

P. vul. A21559 = assay: M.I.C., tube dilution method in Nutrient Broth; format: cell-based; details: unit assumed
Procedure: as §2

Ps. aeru. A9843 = assay: M.I.C., tube dilution method in Nutrient Broth; format: cell-based; details: unit assumed
Procedure: as §2

Ps. aeru. CarbR = assay: M.I.C., tube dilution method in Nutrient Broth; format: cell-based; details: unit assumed
Procedure: as §2

Ser. mars. A20019 = assay: M.I.C., tube dilution method in Nutrient Broth; format: cell-based; details: unit assumed
Procedure: as §2

Staph aur. MR = assay: M.I.C., tube dilution method in Nutrient Broth; format: cell-based; details: unit assumed
Procedure: as §2

Staph aur. Pen+ = assay: M.I.C., tube dilution method in Nutrient Broth; format: cell-based; details: unit assumed
Procedure: as §2

Staph. aur. A9537 = assay: M.I.C., tube dilution method in Nutrient Broth; format: cell-based; details: unit assumed
Procedure: as §2

Staph. serum = assay: M.I.C., tube dilution method in Nutrient Broth; format: cell-based
Procedure: as §2

Str. faec. A20688 = assay: M.I.C., tube dilution method in Nutrient Broth; format: cell-based; details: unit assumed
Procedure: as §2

Str. pneu. A9585 = assay: M.I.C., tube dilution method in Nutrient Broth; format: cell-based; details: unit assumed
Procedure: as §2

Str. pyo. A9604 = assay: M.I.C., tube dilution method in Nutrient Broth; format: cell-based; details: unit assumed
Procedure: as §2

S. pneu = assay: Protective dose (PD50) in infected animals; format: in vivo, mice; parameters: unit not given beside the values; details: PO
Excerpt: as §1

[3] = citric acid buffer, pH 2, 37°C, pH 2.0 citric acid buffer, by hplc, read-out: t1/2, pH 2
[4] = phosphate buffer, pH 7.4, 37°C, pH 7.4 phosphate buffer, by uv, read-out: t1/2, pH 7.4 (converted)
[5] = blood, PO, 50 mg/kg, read-out: Cmax, PO/50
[6] = blood, 20 mg/kg, IM/20, read-out: Cmax, IM/20

SMILES: CSC1=C(C(=O)O)N2C(=O)[C@H]([C@@H](C)N)[C@H]2[C@H]1C [Procedure 9, (5S,6R) 6-(1′R-Aminoethyl)-4R-methyl-3-methylthio-7-oxo-1-azabicyclo[3.2.0]hept-2-ene-2-carboxylic Acid]
- half-life [1, 3]: 3.53 h
- half-life ([1]; phosphate buffer, pH 7.4, 22°C, pH 7.4 phosphate buffer, read-out: half-life (converted)): 39 h
- half-life [1, 4]: 6.8 h
- AUC ([2]; blood, PO, 50 mg/kg): 5 µg·h/mL
- Cmax [2, 5]: 9 µg/mL
- half-life ([2]; PO, 50 mg/kg): 0.3 h
- PD50, E. coli (E. coli; IM): 25.00
- PD50, E. coli (E. coli; PO): 12.50

SMILES: C[C@@H](N)[C@H]1C(=O)N2C(C(=O)O)=C(SCc3cn(C)nn3)[C@H](C)[C@H]12 [Procedure 15]
- M.I.C. E. coli A15119 (E. coli A15119): 0.03 µg/mL
- M.I.C. E. coli A20341 (E. coli A20341): 0.03 µg/mL
- M.I.C. Ent. clo. A9656 (Ent. clo. A9656): 0.03 µg/mL
- M.I.C. Ent. clo. A9659 (Ent. clo. A9659): 0.13 µg/mL
- M.I.C. K. pneu. A20468 (K. pneu. A20468): 0.13 µg/mL
- M.I.C. K. pneu. A9664 (K. pneu. A9664): 0.13 µg/mL
- M.I.C. P. mir. A9900 (P. mir. A9900): 0.03 µg/mL
- M.I.C. P. morg. A15153 (P. morg. A15153): 0.13 µg/mL
- M.I.C. P. rett. A22424 (P. rett. A22424): 4 µg/mL
- M.I.C. P. vul. A21559 (P. vul. A21559): 0.06 µg/mL
- M.I.C. Ps. aeru. A9843 (Ps. aeru. A9843): 2 µg/mL
- M.I.C. Ps. aeru. CarbR (Ps. aeru. CarbR): 16 µg/mL
- M.I.C. Ser. mars. A20019 (Ser. mars. A20019): 0.13 µg/mL
- M.I.C. Staph aur. MR (Staph aur. MR): 32 µg/mL
- M.I.C. Staph aur. Pen+ (Staph aur. Pen+): 4 µg/mL
- M.I.C. Staph. aur. A9537 (Staph. aur. A9537): 4 µg/mL
- M.I.C. Staph. serum (Staph. serum; unit assumed): 4 µg/mL
- M.I.C. Str. faec. A20688 (Str. faec. A20688): 125 µg/mL
- M.I.C. Str. pneu. A9585 (Str. pneu. A9585): 1 µg/mL
- M.I.C. Str. pyo. A9604 (Str. pyo. A9604): 1 µg/mL
- half-life [1, 3]: 2.4 h
- half-life [1, 4]: 3.1 h
- U.R. [2]: 11
- AUC ([2]; in vivo, PO, 50 mg/kg): 25 µg·h/mL
- half-life ([2]; in vivo, PO, 50 mg/kg): 0.4 h
- Cmax ([2]; in vivo, PO, 50 mg/kg, read-out: Cmax, PO/50): 29 µg/mL
- PD50, E. coli (E. coli; PO): 21.80

SMILES: C[C@@H](N)[C@H]1C(=O)N2C(C(=O)O)=C(SCc3ccccn3)[C@H](C)[C@H]12 [Procedure 18, (5S,6R) 6-(1′R-Aminoethyl)-4R-methyl-3-[(pyridin-2-yl)methylthio]-7-oxo-1-azabicyclo[3.2.0]hept-2-ene-2-carboxylic Acid]
- half-life [1, 3]: 2 h
- half-life [1, 4]: 2.8 h
- U.R. [2]: 17
- half-life ([2]; 20 mg/kg, IM/20): 0.25 h
- AUC ([2]; blood, 20 mg/kg, IM/20): 11 µg·h/mL
- Cmax [2, 6]: 24 µg/mL
- AUC ([2]; blood, PO, 50 mg/kg): 32 µg·h/mL
- Cmax [2, 5]: 33 µg/mL
- half-life ([2]; PO, 50 mg/kg): 0.4 h
- PD50, E. coli (E. coli; PO): 11.20
- PD50, S. pneu (S. pneu): 16.5

SMILES: C[C@@H](N)[C@H]1C(=O)N2C(C(=O)O)=C(SCc3cccnc3)[C@H](C)[C@H]12 [Procedure 21, (5S,6R)-6-(1′R-Aminoethyl)-4R-methyl-3-[(pyridin-3-yl)methyl-thio]-7-oxo-1-azabicyclo[3,2,0]hept-2-ene-2-carboxylic Acid]
- half-life [1, 3]: 2.4 h
- half-life [1, 4]: 3 h
- U.R. [2]: 5
- half-life ([2]; 20 mg/kg, IM/20): 0.2 h
- AUC ([2]; blood, 20 mg/kg, IM/20): 7 µg·h/mL
- Cmax [2, 6]: 18 µg/mL
- AUC ([2]; blood, PO, 50 mg/kg): 21 µg·h/mL
- Cmax [2, 5]: 25 µg/mL
- half-life ([2]; PO, 50 mg/kg): 0.383 h
- PD50, E. coli (E. coli; PO): 8.10

SMILES: CSC1=C(C(=O)O)N2C(=O)[C@H]([C@@H](C)NC(=O)CNC(=O)[C@H](C)N)[C@H]2[C@H]1C [Procedure 38, (5S,6R) 6-(1′R-(L-alanylglycyl)aminoethyl)-4R-methyl-3-methylthio-7-oxo-1-azabicyclo[3.2.0]hept-2-ene--2-carboxylic Acid]
- half-life [1, 3]: < 0.0833 h
- half-life [1, 4]: 29 h
- Cmax [2, 5]: 2 µg/mL
- PD50, E. coli (E. coli; IM): 12.50
- PD50, E. coli (E. coli; PO): 25.00

SMILES: CSC1=C(C(=O)O)N2C(=O)[C@H]([C@@H](C)NC(=O)[C@H](CC(C)C)NC(=O)[C@H](C)N)[C@H]2[C@H]1C [Procedure 39, (5S,6R)-6-{1′R-(L-Alanyl-L-leucyl)aminoethyl}-4R-methyl-3-methylthio-7-oxo-1-azabicyclo[3.2.0]hept-2-ene-2-carboxylic Acid]
- half-life [1, 3]: < 0.0833 h
- half-life [1, 4]: 46 h
- Cmax [2, 5]: 2 µg/mL
- PD50, E. coli (E. coli; IM): 25.00
- PD50, E. coli (E. coli; PO): 25.00

SMILES: CC[C@H]1C(SCc2cn(C)nn2)=C(C(=O)O)N2C(=O)[C@H]([C@H](C)N)[C@@H]12 [Procedure 52, (5S,6R) 6-(1′S-Aminoethyl)-4R-ethyl-3-[(1-metyl-1,2,3-triazol-4-yl)-methylthio]-7-oxo-1-azabicyclo[3.2.0]hept-2-ene-2-carboxylate]
- M.I.C. E. coli A15119 (E. coli A15119): 0.5 µg/mL
- M.I.C. E. coli A20341 (E. coli A20341): 0.5 µg/mL
- M.I.C. Ent. clo. A9656 (Ent. clo. A9656): 1 µg/mL
- M.I.C. Ent. clo. A9659 (Ent. clo. A9659): 2 µg/mL
- M.I.C. K. pneu. A20468 (K. pneu. A20468): 2 µg/mL
- M.I.C. K. pneu. A9664 (K. pneu. A9664): 1 µg/mL
- M.I.C. P. mir. A9900 (P. mir. A9900): 0.25 µg/mL
- M.I.C. P. morg. A15153 (P. morg. A15153): 0.5 µg/mL
- M.I.C. P. rett. A22424 (P. rett. A22424): 4 µg/mL
- M.I.C. P. vul. A21559 (P. vul. A21559): 0.25 µg/mL
- M.I.C. Ps. aeru. A9843 (Ps. aeru. A9843): 32 µg/mL
- M.I.C. Ser. mars. A20019 (Ser. mars. A20019): 1 µg/mL
- M.I.C. Staph aur. MR (Staph aur. MR): 125 µg/mL
- M.I.C. Staph aur. Pen+ (Staph aur. Pen+): 125 µg/mL
- M.I.C. Staph. aur. A9537 (Staph. aur. A9537): 32 µg/mL
- M.I.C. Staph. serum (Staph. serum; unit assumed): 63 µg/mL
- M.I.C. Str. faec. A20688 (Str. faec. A20688): 125 µg/mL
- M.I.C. Str. pneu. A9585 (Str. pneu. A9585): 8 µg/mL
- M.I.C. Str. pyo. A9604 (Str. pyo. A9604): 16 µg/mL

SMILES: CSC1=C(C(=O)O)N2C(=O)[C@H]([C@H](C)NC(=O)CNC(=O)[C@@H](N)CC(C)C)[C@H]2[C@H]1C [Procedure 61, (5S,6R) 6-(1′S-(L-Leucylglycyl)aminoethyl)-4R-methyl-3-methylthio-7-oxo-1-azabicyclo[3.2.0]hept-2-ene-2-carboxylic Acid]
- M.I.C. Staph. serum (Staph. serum): 63.000
